Measurements published in ChEMBL document CHEMBL2203255, “Nerve growth factor-potentiating benzofuran derivatives from the medicinal fungus Phellinus ribis” (J Nat Prod, 2012).
Activity calls are given as the source filed them. The calls are words filed in the database; no cut-off is given here.

These molecules were tested on PC-12 (assay: Neuritogenic activity in rat PC12 cells assessed as potentiation of NGF-induced neurite outgrowth at 1 to 30 uM after 4 days by phase-contrast microscopy in presence of 1 ng/ml NGF).
Format: functional, cell-based

Q: For `CO[C@@H]1C(=O)c2c(oc3ccccc23)[C@H](O)[C@H]1O`, which Activity is on record?
A: Its Activity is “Active”.

Q: Which Activity does the source give for `CO[C@H]1[C@H](O)c2oc3ccccc3c2C(=O)[C@@H]1OC` here?
A: The Activity was “Active”.

Q: For `CO[C@@H]1[C@H](OC)C(=O)c2c(oc3ccccc23)[C@@H]1O`, which Activity is on record?
A: Its Activity is “Active”.

Q: How did the Activity turn out when `CO[C@H]1[C@H](OC)C(=O)c2c(oc3c(O)cccc23)[C@@H]1O` was run?
A: Its Activity is “Active”.
